From US20260335299A1, “SUBSTITUTED OXOISOINDOLINYL PIPERIDINE-2,6-DIONE COMPOUND AS ANTICANCER AGENT” (BRISTOL-MYERS SQUIBB COMPANY, priority 2023, published 2026)

Experiments:
Type in all cases: cell-based
IKZF1 Ikaros [1] = biological target: T1, IKZF1 Ikaros (Homo sapiens, UniProt Q13422+Q96SW2); experiment: Jurkat Cellular Degradation Assay (Ikaros); design: endogenous in cells; host or cells: Jurkat cells; settings: Jurkat cells, 72 h
Description: (§1) Jurkat cells were plated at 80,000 cells/well in 40 μL RPMI+10% FBS in a 384-well cell culture plate prior to using acoustic dispensing technology for adding a compound of interest. Cell cultures were incubated for 72 h at 37° C. and 5% CO2. In order to facilitate analysis, cell cultures were spun down at 200 rpm for 5 min and the supernatant was discarded. After shaking the plate to dislodge the cell pellet, cells were resuspended in 50 μL of Fixation Buffer (eBioscience FoxP3 buffer set 00-5523-00) for 60 min at room temperature. After centrifuging and discarding the supernatant, cells were permeabilized with 50 μL of Permeabilization buffer (eBioscience FoxP3 buffer set 00-5523-00) for 10 min at room temperature. Following permeabilization, cells were spun down and the supernatant was replaced with 20 μL fluorescently labelled antibodies against Helios, Ikaros and Aiolos or corresponding Isotype controls in 1× Permeabilization buffer (Ikaros-Alexa488 [Biolegend, Cat #368408, 1:50], Helios-PE [CST, Cat #29360, 1:50], Aiolos-Alexa647 [Biolegend, Cat #371106 Biolegend, 1:25]) and staining reactions were incubated for 1 h at room temperature while protected from light. Subsequently, 30 μL of 1× Permeabilization buffer was added prior to centrifuging the cells and discarding the supernatant. Stained cells were resuspended in 25 μL of flow cytometry staining buffer [PBS+0.2% bovine serum albumin (BSA)] and analyzed using an Intellicyt Ique Plus flow cytometer.
(§2) Table A-1 lists the maximum observed degradation of the IKZF1 protein, IKZF2 protein, and IKZF3 protein as measured in the Jurkat Cellular Degradation assay. The results in Table A-I were rounded to two digits. In the Jurkat Cellular Degradation assay, a value of 100% indicated no detectable protein remaining or complete degradation of the protein; and a value of 0% indicated no detectable degradation of the protein by the test compound.

IKZF3 Aiolos = IKZF3 Aiolos (Homo sapiens, UniProt Q96SW2+Q9UKT9); experiment: Jurkat Cellular Degradation Assay (Aiolos); design: endogenous in cells; host or cells: Jurkat cells; settings: Jurkat cells, 72 h
Description: as §1, §2

IKZF1 Ikaros [2] = biological target: T1, IKZF1 Ikaros; experiment: Human Regulatory T Cell Degradation Assay (Ikaros); settings: human regulatory T cells, 20 h
Description: Cryopreserved human regulatory T cells were thawed in RPMI+10% FBS+20 ng/mL IL-2. After being spun at 1200 rpm for 5 mins, the cells were resuspended in RPMI+10% FBS+20 ng/ml and rested at 37° C. with 5% CO2 for 3 hours. The cells were then plated at 40,000 cells/well in 40 μL RPMI+10% FBS+20 ng/mL human IL-2 in a 384 well cell culture plate prior to using acoustic dispensing technology (ECHO 555) for adding compounds of interest. Cell cultures were incubated for 20 hours at 37° C. and 5% CO2. In order to facilitate analysis, cell cultures were spun down at 1200 rpm for 5 minutes and the supernatant was discarded using an EL406 plate washer. After washing three times with […] PBS, cell pellets were resuspended in 50 μL of […] viability staining solution (Life Technologies, Cat #L34975) and incubated for 30 minutes on ice protected from light. Cells were washed three times with 70 μL PBS+0.5% BSA using an EL406 plate washer. After shaking the plate to dislodge the cell pellet, cells were resuspended in 50 μL of Fixation Buffer (eBioScience FoxP3 buffer set 00-5523-00) for 60 minutes at room temperature. After centrifuging and discarding the supernatant, cells were permeabilized with 50 μL of permeabilization buffer (eBioScience FoxP3 buffer set 00-5523-00) for 10 minutes at room temperature. Following permeabilization, cells were spun down and the supernatant was replaced with 30 μL fluorescently labelled antibodies against the intracellular targets Helios (Helios-APC [BioLegend, Cat #137222, 1:50])]), Aiolos, and Ikaros 1× Permeabilization buffer and staining reactions were incubated for 1 hour at room temperature; protected from light. Subsequently, […] Permeabilization buffer was added prior to centrifuging the cells and discarding the supernatant. Stained cells were resuspended in 30 μL of flow cytometry staining buffer (PBS+0.5% BSA) and analyzed using an Intellicyt Ique Plus flow cytometer.
as §2, with “B-1” for “A-1”, “protein and” for “protein,”, “IKZF2” for “IKZF2 protein, and IKZF3”, “Human Regulatory T Cell” for “Jurkat Cellular”, “B-1” for “A-I”

IKZF2 Helios = IKZF2 Helios (Homo sapiens, UniProt Q96SW2+Q9UKS7); experiment: Jurkat Cellular Degradation Assay (Helios); design: endogenous in cells; host or cells: Jurkat cells; settings: Jurkat cells, 72 h
Description: Jurkat cells were plated at 80,000 cells/well in 40 μL RPMI+10% FBS in a 384-well cell culture plate prior to using acoustic dispensing technology for adding a compound of interest. Cell cultures were incubated for 72 h at 37° C. and 5% CO2. In order to facilitate analysis, cell cultures were spun down at 200 rpm for 5 min and the supernatant was discarded. After shaking the plate to dislodge the cell pellet, cells were resuspended in 50 μL of Fixation Buffer (eBioscience FoxP3 buffer set 00-5523-00) for 60 min at room temperature. After centrifuging and discarding the supernatant, cells were permeabilized with 50 μL of Permeabilization buffer (eBioscience FoxP3 buffer set 00-5523-00) for 10 min at room temperature. […] Stained cells were resuspended in 25 μL of flow cytometry staining buffer [PBS+0.2% bovine serum albumin (BSA)] and analyzed using an Intellicyt Ique Plus flow cytometer.
Table A-1 lists the maximum observed degradation of the IKZF1 protein, IKZF2 protein, and IKZF3 protein as measured in the Jurkat Cellular Degradation assay. […]

[3] = concentration reducing protein level by 50% compared to DMSO alone

T1 sequence (Q13422 whole entry): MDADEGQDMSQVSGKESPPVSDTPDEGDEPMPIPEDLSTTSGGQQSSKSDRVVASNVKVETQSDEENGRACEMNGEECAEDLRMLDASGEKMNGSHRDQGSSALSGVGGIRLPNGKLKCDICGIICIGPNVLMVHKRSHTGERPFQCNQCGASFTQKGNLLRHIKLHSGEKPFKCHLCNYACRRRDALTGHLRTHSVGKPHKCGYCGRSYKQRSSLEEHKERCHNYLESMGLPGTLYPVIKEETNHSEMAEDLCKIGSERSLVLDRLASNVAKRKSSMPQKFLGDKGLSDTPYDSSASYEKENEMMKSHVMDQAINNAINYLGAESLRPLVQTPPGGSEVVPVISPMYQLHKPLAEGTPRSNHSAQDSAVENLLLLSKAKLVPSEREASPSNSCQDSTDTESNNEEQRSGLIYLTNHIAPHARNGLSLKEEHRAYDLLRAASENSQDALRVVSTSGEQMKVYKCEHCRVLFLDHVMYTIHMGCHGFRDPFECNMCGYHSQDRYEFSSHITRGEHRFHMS
T1 sequence (Q96SW2 whole entry): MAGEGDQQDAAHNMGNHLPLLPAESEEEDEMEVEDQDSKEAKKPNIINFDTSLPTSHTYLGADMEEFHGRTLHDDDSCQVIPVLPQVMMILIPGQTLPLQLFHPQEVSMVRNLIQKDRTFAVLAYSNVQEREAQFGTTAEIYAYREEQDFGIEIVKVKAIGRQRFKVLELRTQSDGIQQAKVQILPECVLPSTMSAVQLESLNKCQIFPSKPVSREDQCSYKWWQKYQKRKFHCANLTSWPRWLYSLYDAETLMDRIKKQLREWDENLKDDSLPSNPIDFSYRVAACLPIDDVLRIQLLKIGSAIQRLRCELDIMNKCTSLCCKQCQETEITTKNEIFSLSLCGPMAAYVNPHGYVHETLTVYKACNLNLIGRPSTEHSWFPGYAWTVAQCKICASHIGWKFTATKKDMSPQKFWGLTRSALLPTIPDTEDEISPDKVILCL
T1 sequence (Q16531 whole entry partner): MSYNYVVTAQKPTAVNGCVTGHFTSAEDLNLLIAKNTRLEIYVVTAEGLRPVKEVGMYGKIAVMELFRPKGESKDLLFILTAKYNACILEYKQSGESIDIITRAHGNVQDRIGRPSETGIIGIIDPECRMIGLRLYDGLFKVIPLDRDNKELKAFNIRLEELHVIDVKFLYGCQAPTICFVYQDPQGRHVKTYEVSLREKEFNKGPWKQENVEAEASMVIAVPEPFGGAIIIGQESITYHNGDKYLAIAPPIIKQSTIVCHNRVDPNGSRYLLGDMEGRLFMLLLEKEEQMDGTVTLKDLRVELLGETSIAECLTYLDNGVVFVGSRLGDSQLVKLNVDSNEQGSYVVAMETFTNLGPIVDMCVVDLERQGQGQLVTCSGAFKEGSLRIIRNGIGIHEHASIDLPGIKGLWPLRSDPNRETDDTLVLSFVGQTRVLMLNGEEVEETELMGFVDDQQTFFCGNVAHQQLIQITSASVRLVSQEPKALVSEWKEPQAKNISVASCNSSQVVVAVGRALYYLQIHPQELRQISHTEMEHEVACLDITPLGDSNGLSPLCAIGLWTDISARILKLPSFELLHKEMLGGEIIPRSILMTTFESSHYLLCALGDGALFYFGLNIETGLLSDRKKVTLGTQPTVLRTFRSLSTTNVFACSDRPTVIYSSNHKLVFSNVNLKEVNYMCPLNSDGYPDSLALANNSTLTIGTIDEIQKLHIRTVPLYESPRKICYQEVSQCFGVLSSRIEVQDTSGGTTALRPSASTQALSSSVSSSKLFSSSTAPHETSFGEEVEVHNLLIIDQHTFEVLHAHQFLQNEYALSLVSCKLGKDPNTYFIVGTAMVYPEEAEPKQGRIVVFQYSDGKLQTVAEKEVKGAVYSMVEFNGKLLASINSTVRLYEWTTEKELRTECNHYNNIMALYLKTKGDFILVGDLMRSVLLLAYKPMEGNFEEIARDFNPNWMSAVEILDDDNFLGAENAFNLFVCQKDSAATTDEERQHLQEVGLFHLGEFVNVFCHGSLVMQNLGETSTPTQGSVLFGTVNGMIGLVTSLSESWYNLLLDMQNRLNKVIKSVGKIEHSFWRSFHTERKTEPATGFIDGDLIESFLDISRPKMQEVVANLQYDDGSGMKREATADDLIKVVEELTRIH
Sequence of IKZF3 Aiolos (Q9UKT9 whole entry): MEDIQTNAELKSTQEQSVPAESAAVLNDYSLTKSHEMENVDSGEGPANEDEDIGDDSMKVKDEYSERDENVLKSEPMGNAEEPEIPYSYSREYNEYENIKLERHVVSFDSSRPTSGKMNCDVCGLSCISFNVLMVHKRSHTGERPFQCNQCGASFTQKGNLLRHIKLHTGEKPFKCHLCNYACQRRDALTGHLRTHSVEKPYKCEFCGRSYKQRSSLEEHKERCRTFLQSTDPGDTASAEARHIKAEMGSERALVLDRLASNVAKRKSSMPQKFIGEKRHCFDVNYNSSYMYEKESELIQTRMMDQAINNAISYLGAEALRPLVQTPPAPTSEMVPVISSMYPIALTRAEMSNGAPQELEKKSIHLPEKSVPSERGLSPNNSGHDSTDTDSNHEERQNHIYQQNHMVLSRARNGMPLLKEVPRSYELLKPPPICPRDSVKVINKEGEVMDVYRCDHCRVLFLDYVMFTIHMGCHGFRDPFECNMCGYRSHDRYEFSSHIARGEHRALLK
Sequence of IKZF3 Aiolos (Q96SW2 whole entry): as the sequence (Q96SW2 whole entry) above
Sequence of IKZF3 Aiolos (Q16531 whole entry partner): as the sequence (Q16531 whole entry partner) above
Sequence of IKZF2 Helios (Q9UKS7 whole entry): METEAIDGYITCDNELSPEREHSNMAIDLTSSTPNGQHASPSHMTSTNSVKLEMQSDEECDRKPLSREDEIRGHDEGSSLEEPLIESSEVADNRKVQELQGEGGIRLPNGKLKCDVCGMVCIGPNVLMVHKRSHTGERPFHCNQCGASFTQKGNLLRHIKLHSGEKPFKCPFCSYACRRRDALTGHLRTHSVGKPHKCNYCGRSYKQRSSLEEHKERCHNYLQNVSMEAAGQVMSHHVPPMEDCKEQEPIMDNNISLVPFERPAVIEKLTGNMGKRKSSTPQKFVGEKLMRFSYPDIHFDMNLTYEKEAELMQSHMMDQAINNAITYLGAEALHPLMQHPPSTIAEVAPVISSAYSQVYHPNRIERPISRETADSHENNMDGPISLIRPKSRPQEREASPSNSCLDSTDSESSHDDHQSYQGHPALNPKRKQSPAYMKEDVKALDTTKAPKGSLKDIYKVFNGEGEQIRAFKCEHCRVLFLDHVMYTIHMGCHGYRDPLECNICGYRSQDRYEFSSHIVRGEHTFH
Sequence of IKZF2 Helios (Q96SW2 whole entry): as the sequence (Q96SW2 whole entry) above
Sequence of IKZF2 Helios (Q16531 whole entry partner): as the sequence (Q16531 whole entry partner) above

Q: For `Nc1nc(-c2ccc3c(c2F)CN(C2CCC(=O)NC2=O)C3=O)ccc1CN1CC(C2CCC(F)(F)CC2)C1` (centres unmarked) [Example 1, 3-(5-(6-Amino-5-((3-(4,4-difluorocyclohexyl)azetidin-1-yl)methyl)pyridin-2-yl)-4-fluoro-1-oxoisoindolin-2-yl) piperidine-2,6-dione], which DC50 (IKZF1 Ikaros [1]; [3]) is on record?
A: Its DC50 is 90.9 nM.

Q: And the Dmax (IKZF1 Ikaros [1]; human, read-out: IKZF1 Ikaros max % deg. observed)?
A: Its Dmax is 69%.

Q: And the DC50 (IKZF3 Aiolos; [3])?
A: Its DC50 is greater than 10000 nM.

Q: What about the Dmax (IKZF3 Aiolos; human, read-out: IKZF3 Aiolos max % deg. observed) of the same compound?
A: Its Dmax is 48%.

Q: What about the Dmax (IKZF1 Ikaros [2]; Regulatory T cell, read-out: IKZF1 Ikaros max % deg. observed) of the same compound?
A: The Dmax was 62%.

Q: What about the DC50 (IKZF1 Ikaros [2]; [3]) of the same compound?
A: The DC50 was 194 nM.

Q: And the DC50 (IKZF2 Helios; [3])?
A: Its DC50 is 4.4 nM.

Q: What about the Dmax (IKZF2 Helios; human, read-out: IKZF2 Helios max % deg. observed) of the same compound?
A: The Dmax was 92%.
